Results as given in patent publication US20240166643A1, “IMIDAZO[1,2-A]PYRIDINE COMPOUNDS AND THEIR USE IN THERAPY” (Imperial College Innovations Limited, priority 2020, published 2024).
pEC50, pIC50: −log10 of the molar value. Like-named read-outs stand apart in the source and are kept apart here.

How the values were obtained:
in vitro = settings: male, Sprague-Dawley, rat, pooled cryopreserved rat hepatocytes, pH 7.4
[1] = biological target: Plasmodium vivax (Pv) NMT (Plasmodium vivax (strain Salvador I), UniProt A5K1A2); assay: biochemical
[2] = system: Plasmodium falciparum 3D7; assay: SYBR Green assay, Plasmodium falciparum strain 3D7; format: cell-based; settings: P. falciparum strain 3D7, 96 h incubation, read-out: Pf EC50 strain 3D7
Human NMT1 (HsNMT1) = Human NMT1 (HsNMT1) (Homo sapiens, UniProt P30419); assay: biochemical
SU-DHL-10 cells = assay: Cell cytotoxicity in SU-DHL-10 cell line (CellTiter-Glo); format: cell-based; settings: Homo sapiens, read-out: SU-DHL-10 EC50
Procedure: Assay (c): Cell Cytotoxicity in SU-DHL-10 Cell Line
Cell Culture: SU-DHL-10 (ATCC CRL-2963) were cultured in RPMI-media (ATCC, 30-2001).
Cultures were maintained by the addition of fresh medium and inoculum of 8.0×10^4 to 2.0×10^5 cells/mL. Subculturing was done when the cell density was between 1.0×10^6 and 2.0×10^6 cells/mL.
Cell seeding: 5000 cells/well were plated in 384-white clear bottom plates (Greiner, 781098) for the assay in 20 μl growth media.
Top dose: 1 mM stocks of each compound was prepared in 100% DMSO and thereafter diluted 333.33 fold in growth media to obtain 3 μM (0.3% DMSO) mid stock of each compound, from which 10 μl was added to assay wells (with 20 μl cells) for a final concentration of 1 μM (0.1% DMSO). For subsequent dose-response: 1 mM stock was diluted 3 fold in DMSO before subjecting to above dilution pattern to obtain final 0.1% DMSO concentration.
Treatment: Cells were incubated with the compounds for 48 h at 37° C. in presence of 5% CO2.
Assay Procedure: The assay plate and its contents were equilibrated at room temperature for approximately 30 minutes. CellTiter-Glo® Reagent was added equal to the volume (1;1) of cell culture medium present in each well. The contents were mixed for 5 minutes on an orbital shaker to induce cell lysis. The plate was allowed to incubate at room temperature for 10 minutes to stabilize luminescent signal. The luminescence was recorded with an integration time of 0.25 seconds in EnVision 2104 Multilabel Plate Reader (Perkin Elmer).
Calculation: % Cytotoxicity was calculated considering 100% cell death in wells treated with 0.1% TritonX.

Chain of Plasmodium vivax (Pv) NMT (A5K1A2 1-410): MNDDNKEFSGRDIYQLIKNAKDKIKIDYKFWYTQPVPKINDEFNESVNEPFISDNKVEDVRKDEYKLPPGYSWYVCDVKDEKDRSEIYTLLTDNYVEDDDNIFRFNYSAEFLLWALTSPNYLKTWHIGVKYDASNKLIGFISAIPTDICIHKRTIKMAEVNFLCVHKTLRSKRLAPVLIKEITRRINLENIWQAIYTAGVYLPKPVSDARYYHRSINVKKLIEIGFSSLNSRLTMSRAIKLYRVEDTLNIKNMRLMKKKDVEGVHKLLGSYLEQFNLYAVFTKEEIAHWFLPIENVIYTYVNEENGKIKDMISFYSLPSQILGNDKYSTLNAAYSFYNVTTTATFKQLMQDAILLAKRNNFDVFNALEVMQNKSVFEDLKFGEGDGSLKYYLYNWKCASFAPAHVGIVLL
Chain of Human NMT1 (HsNMT1) (P30419 whole entry, looked up): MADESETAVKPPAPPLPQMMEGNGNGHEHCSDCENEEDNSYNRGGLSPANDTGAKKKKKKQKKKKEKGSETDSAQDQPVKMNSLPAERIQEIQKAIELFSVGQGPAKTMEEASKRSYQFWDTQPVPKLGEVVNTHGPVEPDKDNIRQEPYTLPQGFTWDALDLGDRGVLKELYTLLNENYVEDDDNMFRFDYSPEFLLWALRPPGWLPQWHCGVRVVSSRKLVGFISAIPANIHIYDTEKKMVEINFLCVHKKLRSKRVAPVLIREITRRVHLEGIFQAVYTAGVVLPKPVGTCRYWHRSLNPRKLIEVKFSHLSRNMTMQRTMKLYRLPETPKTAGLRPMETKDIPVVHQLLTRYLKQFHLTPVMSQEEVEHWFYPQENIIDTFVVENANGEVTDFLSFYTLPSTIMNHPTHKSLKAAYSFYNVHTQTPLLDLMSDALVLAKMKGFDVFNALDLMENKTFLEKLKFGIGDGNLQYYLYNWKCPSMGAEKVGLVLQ

| Compound | half-life at 1 µM (in vitro) | pIC50 [1] | pEC50 [2] | pIC50 (Human NMT1 (HsNMT1)) | pEC50 (SU-DHL-10 cells; SU-DHL10, CellTiter-Glo, 48 h) | pEC50 (SU-DHL-10 cells; SU-DHL10, 48 h) |
| --- | --- | --- | --- | --- | --- | --- |
| CN1CCN(c2ncc(F)c(N3CC(C)(C(=O)NC(C)(C)c4cnc5ccccn45)C3)n2)CC1 [Example 65] | 2.41 h | 7.05 | < 6.00 |  |  |  |
| CN1CCN(c2ncc(Cl)c(N3CCC(C(=O)NC(C)(C)c4cnc5ccccn45)CC3)n2)CC1 [Example 77] | 1.49 h | 7.13 | < 6.00 |  |  |  |
| C[C@H]1CN(C)CCN1c1ncc(F)c(N2CC(C(=O)N(C)C(C)(C)c3cnc4ccccn34)C2)n1 [Example 108, 1-{2-[(2S)-2,4-dimethylpiperazin-1-yl]-5-fluoropyrimidin-4-yl}-N-(2-{imidazo[1,2-a]pyridin-3-yl}propan-2-yl)-N-methylazetidine-3-carboxamide] | 0.967 h |  | 6.70 |  |  |  |
| C[C@@H]1CN(c2ncc(Cl)c(N3CC(C(=O)NC(C)(C)c4cnc5ccccn45)C3)n2)CCN1 [Example 1, 1-{5-chloro-2-[(3R)-3-methylpiperazin-1-y]pyrimidin-4-yl}-N-(2-{imidazo[1,2-a]pyridin-3-yl}propan-2-yl)azetidine-3-carboxamide] |  | 8.18 | 8.20 | 8.52 | 6.44 |  |
| CC1CNCCN1c1ncc(Cl)c(N2CC(C(=O)N(C)C(C)(C)c3cnc4ccccn34)C2)n1 (stereo not drawn) [Example 50] |  |  | 7.59 |  | 7.46 |  |
| Cc1ccc2ncc(C(C)(C)NC(=O)C3CN(c4nc(N5CCN(C)CC5)ncc4F)C3)n2c1 [Example 60] | 2.41 h | 6.96 | 6.62 |  |  |  |
| CCN1CCN(c2ncc(Cl)c(N3CC(C(=O)NC(C)(C)c4cnc5ccccn45)C3)n2)CC1 [Example 70] | > 3 h | 8.07 | 6.39 |  |  |  |
| CN1CCCN(c2ncc(Cl)c(N3CC(C(=O)N(C)C(C)(C)c4cnc5ccccn45)C3)n2)CC1 [Example 121, 1-(5-chloro-2-(4-methyl-1,4-diazepan-1-yl)pyrimidin-4-yl)-N-(2-(Imidazo[1,2-a]pyridin-3-yl)propan-2-yl)-N-methylazetidine-3-carboxamide] |  |  |  | 8.40 | 7.38 |  |
| CCN(C(=O)C1CN(c2nc(N3CCNC[C@@H]3C)ncc2Cl)C1)C(C)(C)c1cnc2ccccn12 [Example 145, (S)-1-(5-chloro-2-(2-methylpiperazin-1-yl)pyrimidin-4-yl)-N-ethyl-N-(2-(imidazo[1,2-a]pyridin-3-yl)propan-2-yl)azetidine-3-carboxamide] |  |  |  | 8.52 | 7.89 |  |
| CC[C@H]1CNCCN1c1ncc(Cl)c(N2CC(C(=O)N(C)C(C)(C)c3cnc4ccccn34)C2)n1 [Example 148, (S)-1-(5-chloro-2-(2-ethylpiperazin-1-yl)pyrimidin-4-yl)-N-(2-(Imidazo[1,2-a]pyridin-3-yl)propan-2-yl)-N-methylazetidine-3-carboxamide] |  |  |  | 8.30 | 6.43 |  |
| Cc1cnc(N2CCN(C)CC2)nc1N1CC(C(=O)NC(C)(C)c2cnc3ccccn23)C1 [Example 66] | > 3 h | 7.54 | 6.49 |  |  |  |
| CN1CCN(c2ncc(F)c(N3CC(C(=O)NC(C)(C)c4cnc5c(F)cccn45)C3)n2)CC1 [Example 61] | > 3 h | 7.89 | 6.59 |  |  |  |
| C[C@@H]1CN(c2ncc(Cl)c(N3CC(C(=O)NC(C)(C)c4cnc5ccccn45)C3)n2)C[C@H](C)N1 [Example 43] | > 3 h |  | 6.96 |  |  |  |
| C[C@@H]1CN(c2ncc(Cl)c(N3CC(C(=O)NC(C)(C)c4cnc5ccccn45)C3)n2)[C@@H](C)CN1C [Example 154, 1-(5-chloro-2-((2S,5R)-2,4,5-trimethylpiperazin-1-yl)pyrimidin-4-yl)-N-(2-(imidazo[1,2-a]pyridin-3-yl)propan-2-yl)azetidine-3-carboxamide] |  |  |  | 8.00 | 6.34 |  |
| C[C@@H]1CN(c2ncc(Cl)c(N3CC(C(=O)NC(C)(C)c4cnc5ccccn45)C3)n2)[C@@H](C)CN1 [Example 153, 1-(5-chloro-2-((2S,5R)-2,5-dimethylpiperazin-1-yl)pyrimidin-4-yl)-N-(2-(imidazo[1,2-a]pyridin-3-yl)propan-2-yl)azetidine-3-carboxamide] |  |  |  | 8.52 | 7.27 |  |
| CC(C)(NC(=O)C1CN(c2nc(N3CC4CCC(C3)N4)ncc2Cl)C1)c1cnc2ccccn12 [Example 144, 1-(2-(3,8-diazabicyclo[3.2.1]octan-3-yl)-5-chloropyrimidin-4-yl)-N-(2-(imidazo[1,2-a]pyridin-3-yl)propan-2-yl)azetidine-3-carboxamide] |  |  |  | 8.30 | 6.61 |  |
| CC(C)(NC(=O)C1CN(c2nc(N3CCNCC3)ncc2Cl)C1)c1cnc2ccccn12 [Example 33] |  | 8.18 | 7.74 | 8.46 | 6.06 |  |
| C[C@@H]1CNCCN1c1ncc(Cl)c(N2CC(C(=O)NC(C)(C)c3cnc4ccccn34)C2)n1 [Example 141, (R)-1-(5-chloro-2-(2-methylpiperazin-1-yl)pyrimidin-4-yl)-N-(2-(Imidazo[1,2-a]pyridin-3-yl)propan-2-yl)azetidine-3-carboxamide] |  |  |  | 8.40 | 6.42 |  |
| C[C@@H]1CNCCN1c1ncc(Cl)c(N2CC(C(=O)N(C)C(C)(C)c3cnc4ccccn34)C2)n1 [Example 138, (R)-1-(5-chloro-2-(2-methylpiperazin-1-yl)pyrimidin-4-yl)-N-(2-(Imidazo[1,2-a]pyridin-3-yl)propan-2-yl)-N-methylazetidine-3-carboxamide] |  |  |  | 7.82 | 6.13 |  |
| CCC1CN(c2ncc(Cl)c(N3CC(C(=O)NC(C)(C)c4cnc5ccccn45)C3)n2)CCN1 (stereo not drawn) [Example 137, 1-(5-chloro-2-(3-ethylpiperazin-1-yl)pyrimidin-4-yl)-N-(2-(imidazo[1,2-a]pyridin-3-yl)propan-2-yl)azetidine-3-carboxamide] |  |  |  | 8.52 | 6.66 |  |
| CN1CCCN(c2nc(N3CC(C(=O)N(C)C(C)(C)c4cnc5ccccn45)C3)c3sccc3n2)CC1 [Example 122, N-(2-(imidazo[1,2-a]pyridin-3-yl)propan-2-yl)-N-methyl-1-(2-(4-methyl-1,4-diazepan-1-yl)thieno[3,2-d]pyrimidin-4-yl)azetidine-3-carboxamide] |  |  |  | 8.40 | 7.30 |  |
| COc1cnc(N2C[C@@H](C)N(C)[C@@H](C)C2)nc1N1CC(C(=O)NC(C)(C)c2cnc3ccccn23)C1 [Example 88, N-(2-{imidazo[1,2-a]pyridin-3-yl}propan-2-yl)-1-{5-methoxy-2-[(3R,5S)-3,4,5-trimethylpiperazin-1-yl]pyrimidin-4-yl}azetidine-3-carboxamide] | > 3 h |  | 7.12 |  |  |  |
| C[C@@H]1CN(C)CCN1c1ncc(Cl)c(N2CC(C(=O)N(C)C(C)(C)c3cnc4ccccn34)C2)n1 [Example 142, (R)-1-(5-chloro-2-(2,4-dimethylpiperazin-1-yl)pyrimidin-4-yl)-N-(2-(imidazo[1,2-a]pyridin-3-yl)propan-2-yl)-N-methylazetidine-3-carboxamide] |  |  |  | 6.75 | 6.31 |  |
| C[C@H]1CN(c2ncc(Cl)c(N3CC(C(=O)NC(C)(C)c4cnc5ccccn45)C3)n2)[C@@H](C)CN1 [Example 151, 1-(5-chloro-2-((2S,5S)-2,5-dimethylpiperazin-1-yl)pyrimidin-4-yl)-N-(2-(imidazo[1,2-a]pyridin-3-yl)propan-2-yl)azetidine-3-carboxamide] |  |  |  | 8.70 | 7.82 |  |
| CN1CCN(c2cc(N3CC(C(=O)NC(C)(C)c4cnc5ccccn45)C3)c(F)cn2)CC1 [Example 4, 1-[5-fluoro-2-(4-methylpiperazin-1-yl)pyridin-4-yl]-N-(2-{imidazo[1,2-a]pyridin-3-yl}propan-2-yl)azetidine-3-carboxamide] | > 3 h |  | 7.00 |  |  |  |
| Cc1cc2nc(N3CCCN(C)CC3)nc(N3CC(C(=O)NC(C)(C)c4cnc5ccccn45)C3)c2s1 [Example 116, N-(2-(imidazo[1,2-a]pyridin-3-yl)propan-2-yl)-1-(6-methyl-2-(4-methyl-1,4-diazepan-1-yl)thieno[3,2-d]pyrimidin-4-yl)azetidine-3-carboxamide] |  |  |  | 8.22 |  | 7.13 |
| CC1CN(c2ncc(Cl)c(N3CC(C(=O)NC(C)(C)c4cnc5ccccn45)C3)n2)C[C@H](C)N1 (stereo partly drawn) [Example 48] |  |  | 7.19 |  | 6.10 |  |
| CC1NCCN(c2ncc(Cl)c(N3CC(C(=O)N(C)C(C)(C)c4cnc5ccccn45)C3)n2)C1C (stereo not drawn) [Example 134, 1-(5-chloro-2-(2,3-dimethylpiperazin-1-yl)pyrimidin-4-yl)-N-(2-(Imidazo[1,2-a]pyridin-3-yl)propan-2-yl)-N-methylazetidine-3-carboxamide] |  |  |  | 8.30 | 6.97 |  |
